The record followed here is ChEMBL document CHEMBL1143319, “Structure-based virtual screening for novel inhibitors of the sarco/endoplasmic reticulum calcium ATPase and their experimental evaluation” (Bioorg Med Chem, 2009).

The assay in a line: Inhibition of rabbit hind leg tissue microsomes ATPase activity of SERCA assessed as ATP hydrolysis. Set-up: species or system Oryctolagus cuniculus.
In general, IC50 refers to the concentration that inhibits the measured activity by half. Consider `CC(C)(C)c1ccc(O)c(C(c2cc(C(C)(C)C)ccc2O)c2cc(C(C)(C)C)ccc2O)c1`, for which the IC50 was determined as 21.3 µM.

`Oc1cc(Cc2ccccc2)c(O)cc1Cc1ccccc1`: the IC50 stood at 9.4 µM.

Consider `CC(C)(C)c1cc(O)c(C(C)(C)C)cc1O`, for which the IC50 worked out at 0.4 µM.

`CC(c1ccccc1)(c1ccccc1)c1ccc(O)cc1`: the IC50 was found to be 49.7 µM.

Take `COc1ccc(C(C)c2cc(C(C)(C)C)c(O)c(C(C)(C)C)c2)cc1` (centres undefined): the half-maximal inhibitory concentration (IC50) worked out at 45.4 µM.

As for `Oc1ccc2ccccc2c1Cc1cccc2ccccc12`, the IC50 is 27.3 µM.

As to `CC(C)(C)c1ccc(O)c(Cc2cc(C(C)(C)C)ccc2O)c1`, the IC50 stood at 11.8 µM.

Regarding `CC(c1ccccc1)c1cc(C(C)(C)C)cc(C(C)(C)C)c1O` (centres undefined), the IC50 amounted to 33.8 µM.

For the compound `Cc1cc(C(C)(C)c2cc(C)c(O)c(C)c2)cc(C)c1O`, the IC50 came to 19.5 µM.

Regarding `CC(c1ccc(O)cc1)C(C)c1ccc(O)cc1` (centres undefined), the IC50 came out at 28.3 µM.

For `CC(=O)C1=C(O)[C@@H]2[C@H]3c4c[nH]c5cccc(c45)C[C@H]3C(C)(C)N2C1=O` [CYCLOPIAZONIC ACID], the IC50 turned out to be 0.12 µM.

As to `Oc1ccc2ccccc2c1Cc1c(O)ccc2ccccc12`, the IC50 is 15 µM.

For the compound `CCC(C)(c1ccc(O)c(C)c1)c1ccc(O)c(C)c1`, the IC50 worked out at 39.3 µM.

With `Oc1cc(Cc2ccccc2)c(Cc2ccccc2)cc1O`, the IC50 was found to be 23.8 µM.

In the case of `Oc1ccc(O)c(C2CCCCCCC2)c1`, the IC50 turned out to be 11.5 µM.

In the case of `CC(C)(C)c1cc2c(cc1O)CCC2`, the IC50 is 28.1 µM.

For the compound `CC(C)CCCCCCc1ccc(O)cc1`, the IC50 stood at 17.2 µM.

In the case of `CC(C)Cc1ccc(CC(C)C)c(O)c1`, the IC50 was found to be 18.8 µM.

`COc1ccc(C(C)c2cc(C(C)(C)C)cc(C(C)(C)C)c2O)cc1` (centres undefined): the IC50 was 35.3 µM.
